Like-named read-outs stand apart in the source and are kept apart here.

Series [1] concerns Influenza strain A549 A/WSN/33 (H1N1). The series can be described thus: microbe, parasite or virus in culture. Type of series: cell-based. The note with it: A549 cells, influenza A/WSN/33 (H1N1), 20 hours incubation, read-out: A549_A(H1N1) EC50.
Another series in a line: in vitro. Conditions: human, CC50, uninfected A549 cells, CellTiter-Glo. In general terms: In ATP-based viability assays light output follows the ATP content of the culture.

What is called EC50 is the concentration that produces a half-maximal response. A word on the CC50: it is the concentration at which the toxic effect on the cells reaches its halfway point. For `O=C1c2c(O)c(=O)ccn2N2CN1C/C=C\COc1cc(F)ccc1[C@@H]2c1ccccn1` (single isomer, unassigned) [Compound 71A, (18*R,*Z)-3-fluoro-12-hydroxy-18-(pyridin-2-yl)-6,9-dihydro-18H-10,17-methanobenzo[b]pyrido[1,2-f][1]oxa[5,6,9]triazacyclotridecine-11,13-dione], the EC50 in series [1] (Influenza A virus, A549, 20 h) worked out at 0.034 µM. Besides, the CC50 in “in vitro” is above 0.2 µM.

Regarding `O=C1c2c(O)c(=O)ccn2N2CN1C/C=C\CCCOc1ccccc1C2c1ccccc1` (stereo not shown) [Compound 60, (*Z)-15-hydroxy-2-phenyl-12,13,14,16-tetrahydro-11H-4-oxa-1(1,3)-pyrido[2,1-f][1,2,4]triazina-3(1,2)-benzenacyclodecaphan-8-ene-14,16-dione], the EC50 in series [1] (Influenza A virus, A549, 20 h) is above 1 µM. The same compound came in with a CC50 in the series “in vitro” above 2 µM.

Consider `C/C1=C/CN2CN([C@@H](c3ccccc3)c3ccccc3OC1)n1ccc(=O)c(O)c1C2=O` (single isomer, unassigned) [Compound 44B, (18*S,*Z)-12-hydroxy-7-methyl-18-phenyl-6,9-dihydro-18H-10,17-methanobenzo[b]pyrido[1,2-f][1]oxa[5,6,9]triazacyclotridecine-11,13-dione], for which the EC50 in series [1] (Influenza A virus, A549, 20 h) is above 10 µM. The CC50 in the series “in vitro” was above 20 µM.

For `O=C1c2c(O)c(=O)ccn2N2CN1C[C@@H]1C[C@H]1COc1c(F)cccc1[C@H]2c1ccccc1` (single isomer, unassigned) [Compound 125AA, (1a*R,8*R,17a*R)-4-fluoro-14-hydroxy-8-phenyl-1a,2,17,17a-tetrahydro-1H,8H-9,16-methanobenzo[b]cyclopropa[k]pyrido[1,2-f][1]oxa[5,6,9]triazacyclotridecine-13,15-dione], in series [1] (Influenza A virus, A549, 20 h), the EC50 was determined as 0.051 µM. Moreover, the 50% cytotoxic concentration (CC50) in “in vitro” was above 0.2 µM.

As to `O=C1c2c(O)c(=O)ccn2N2CN1C/C=C\COc1ccc(Cl)cc1[C@H]2c1ccccc1` (single isomer, unassigned) [Compound 51A], the EC50 in series [1] (Influenza A virus, A549, 20 h) is above 1 µM. The compound also came in with a CC50 in the series “in vitro” above 2 µM.

In the case of `O=C1c2c(O)c(=O)ccn2N2CN1C/C=C\COc1ccccc1[C@H]2c1cccnc1` (single isomer, unassigned) [Compound 26A, (18*R,*Z)-12-hydroxy-18-(pyridin-3-yl)-6,9-dihydro-18H-10,17-methanobenzo[b]pyrido[1,2-f][1]oxa[5,6,9]triazacyclotridecine-11,13-dione], the EC50 in series [1] (Influenza A virus, A549, 20 h) was found to be 0.394 µM. The compound further returned a CC50 in the series “in vitro” above 2 µM.

Take `O=C1c2c(O)c(=O)ccn2N2CN1CCCCCc1ccncc1[C@@H]2c1ccccc1` (single isomer, unassigned) [Compound 34B, (18*S)-12-hydroxy-18-phenyl-5,6,7,8,9,18-hexahydro-10,17-methanodipyrido[1,2-b:4′,3′-k][1,2,5]triazacyclotridecine-11,13-dione]: the 50% effective concentration (EC50) in series [1] (Influenza A virus, A549, 20 h) was above 1 µM. In the series “in vitro”, this compound showed a CC50 above 2 µM.

`O=C1c2c(O)c(=O)ccn2N2CN1C/C=C/CCc1cc(F)ccc1[C@@H]2c1ccccn1` (single isomer, unassigned) [Compound 57A, (16*R,E)-13-fluoro-4-hydroxy-16-(pyridin-2-yl)-7,10,11,16-tetrahydro-6,17-methanobenzo[k]pyrido[1,2-b][1,2,5]triazacyclotridecine-3,5-dione]: the EC50 in series [1] (Influenza A virus, A549, 20 h) came to 0.032 µM. In the series “in vitro”, this compound returned a CC50 above 2 µM.

Take `O=C1c2c(O)c(=O)ccn2N2CN1C/C=C\CCc1ncccc1[C@H]2c1ccccc1` (single isomer, unassigned) [Compound 24A, (18*R,*Z)-12-hydroxy-18-phenyl-5,6,9,18-tetrahydro-10,17-methanodipyrido[1,2-b:2′,3′-k][1,2,5]triazacyclotridecine-11,13-dione]: the EC50 in series [1] (Influenza A virus, A549, 20 h) was 39.6 µM. Besides, the half-maximal cytotoxic concentration (CC50) in the series “in vitro” was above 10 µM.

As for `O=C1c2c(O)c(=O)ccn2N2CN1C[C@H]1C[C@@H](COc3cccc4c3[C@H]2c2ccccc2SC4)C1` (single isomer, unassigned) [Compound 161B], the EC50 in series [1] (Influenza A virus, A549, 20 h) is 0.015 µM. Moreover, in the series “in vitro”, the CC50 was above 0.1 µM.

Take `O=C1c2c(O)c(=O)ccn2N2CN1CCCCOc1c(ccc(F)c1F)[C@@H]2c1ccccc1` (single isomer, unassigned) [Compound 115B, (18*S)-3,4-difluoro-12-hydroxy-18-phenyl-6,7,8,9-tetrahydro-18H-10,17-methanobenzo[b]pyrido[1,2-f][1]oxa[5,6,9]triazacyclotridecine-11,13-dione]: the EC50 in series [1] (Influenza A virus, A549, 20 h) stood at 0.0044 µM. Besides, the CC50 in the series “in vitro” was above 0.2 µM.

With `CSc1ccccc1[C@H]1c2cccc(F)c2OC/C=C\CN2CN1n1ccc(=O)c(O)c1C2=O` (single isomer, unassigned) [Compound 119A, (18*R,*Z)-4-fluoro-12-hydroxy-18-(2-(methylthio)phenyl)-6,9-dihydro-18H-10,17-methanobenzo[b]pyrido[1,2-f][1]oxa[5,6,9]triazacyclotridecine-11,13-dione], the EC50 in series [1] (Influenza A virus, A549, 20 h) is above 0.1 µM. The compound also gave a CC50 in the series “in vitro” above 0.2 µM.

Turning to `O=C1c2c(O)c(=O)ccn2N2CN1C/C=C\COc1c(F)cccc1[C@H]2c1ccccc1` (single isomer, unassigned) [Compound 61A, (18*R,Z)-4-fluoro-12-hydroxy-18-phenyl-6,9-dihydro-18H-10,17-methanobenzo[b]pyrido[1,2-f][1]oxa[5,6,9]triazacyclotridecine-11,13-dione], the EC50 in series [1] (Influenza A virus, A549, 20 h) was 0.005 µM. This compound yielded a CC50 in the series “in vitro” above 2 µM.

For the compound `O=C1c2c(O)c(=O)ccn2N2CN1CCCCCOc1cccc3c1[C@H]2c1ccccc1SC3` (single isomer, unassigned) [Compound 48A], the EC50 in series [1] was above 1 µM. In “in vitro”, the CC50 is above 2 µM.

For `C[C@H]1C/C=C/COc2c(F)cccc2[C@@H](c2ccccc2)N2CN1C(=O)c1c(O)c(=O)ccn12` (single isomer, unassigned) [Compound 100AA, (2*R,9*S,*E)-33-fluoro-15-hydroxy-9-methyl-2-phenyl-12,13,14,16-tetrahydro-11H-4-oxa-1(1,3)-pyrido[2,1-f][1,2,4]triazina-3(1,2)-benzenacyclononaphan-6-ene-14,16-dione], the EC50 in series [1] (Influenza A virus, A549, 20 h) was 0.0017 µM. In addition, the CC50 in the series “in vitro” was above 0.1 µM.

On to `O=C1c2c(O)c(=O)ccn2N2CN1C/C=C\CCc1ccncc1[C@@H]2c1ccccc1` (single isomer, unassigned) [Compound 35B, (18*S,*Z)-12-hydroxy-18-phenyl-5,6,9,18-tetrahydro-10,17-methanodipyrido[1,2-b:4′,3′-k][1,2,5]triazacyclotridecine-11,13-dione], for which the EC50 in series [1] (Influenza A virus, A549, 20 h) was above 1 µM. The compound also came in with a CC50 in the series “in vitro” above 2 µM.

As for `O=C1c2c(O)c(=O)ccn2N2CN1CC/C=C/COc1cccc3c1[C@H]2c1ccccc1SC3` (single isomer, unassigned) [Compound 37D, (1*S,13E)-7-hydroxy-16-oxa-23-thia-2,3,10-triazahexacyclo[15.12.1.12,10.03,8.021,30.024,29]hentriaconta-4,7,13,17,19,21(30),24(29),25,27-nonaene-6,9-dione], the EC50 in series [1] (Influenza A virus, A549, 20 h) came out at 0.001 µM. The compound also registered a half-maximal cytotoxic concentration (CC50) in the series “in vitro” above 0.2 µM.

For the compound `O=C1c2c(O)c(=O)ccn2N2CN1C1(/C=C/COc3c(Cl)cccc3[C@H]2c2ccccc2)CC1` (single isomer, unassigned) [Compound 96A, (18′*R,E)-4′-chloro-12′-hydroxy-18′-phenyl-6′H,18′H-spiro[cyclopropane-1,9′-[10,17]methanobenzo[b]pyrido[1,2-f][1]oxa[5,6,9]triazacyclotridecine]-11′,13′-dione], in series [1] (Influenza A virus, A549, 20 h), the EC50 turned out to be 0.0019 µM. Further, in “in vitro”, the CC50 was above 0.2 µM.

In the case of `CC[C@H]1C/C=C/COc2c(F)cccc2[C@H](c2ccccc2)N2CN1C(=O)c1c(O)c(=O)ccn12` (single isomer, unassigned) [Compound 105BA, (2*S,9*S,*E)-9-ethyl-33-fluoro-15-hydroxy-2-phenyl-12,13,14,16-tetrahydro-11H-4-oxa-1(1,3)-pyrido[2,1-f][1,2,4]triazina-3(1,2)-benzenacyclononaphan-6-ene-14,16-dione], the half-maximal effective concentration (EC50) in series [1] (Influenza A virus, A549, 20 h) was above 0.1 µM. The same compound yielded a CC50 in “in vitro” above 0.2 µM.

For `CC(C)[C@@H]1/C=C/COc2cc(F)c(F)c3c2[C@@H](c2ccccc2SC3)N2CN1C(=O)c1c(O)c(=O)ccn12` (single isomer, unassigned) [Compound 169AB, (9*R,17a*S,*E)-24,25-difluoro-12-hydroxy-9-isopropyl-2,6,9,17a-tetrahydro-3,4-(epiprop[1]en[1]yl[3]ylidene)-10,17-methanobenzo[6,7]thiepino[4,5-c]pyrido[1,2-f][1]oxa[5,6,9]triazacyclotridecine-11,13-dione], the EC50 in series [1] (Influenza A virus, A549, 20 h) is above 0.05 µM. Besides, the CC50 in the series “in vitro” was above 0.1 µM.

For the compound `O=C1c2c(O)c(=O)ccn2N2CN1C/C=C\COc1c(ccc(F)c1F)[C@@H]2c1ccccc1` (single isomer, unassigned) [Compound 74B, (18*S,Z)-3,4-difluoro-12-hydroxy-18-phenyl-6,9-dihydro-18H-10,17-methanobenzo[b]pyrido[1,2-f][1]oxa[5,6,9]triazacyclotridecine-11,13-dione], the 50% effective concentration (EC50) in series [1] (Influenza A virus, A549, 20 h) worked out at 0.002 µM. Besides, the CC50 in the series “in vitro” was above 0.2 µM.

Consider `O=C1c2c(O)c(=O)ccn2N2CN1C1(/C=C/COc3cc(F)c(F)c4c3[C@H]2c2ccccc2SC4)CC1` (single isomer, unassigned) [Compound 108B, (17a′*S,*E)-24′,25′-difluoro-12′-hydroxy-2′,17a′-dihydro-6′H-spiro[cyclopropane-1,9′-[3,4](epiprop[1]en[1]yl[3]ylidene)[10,17]methanobenzo[6,7]thiepino[4,5-c]pyrido[1,2-f][1]oxa[5,6,9]triazacyclotridecine]-11′,13′-dione], for which, in series [1] (Influenza A virus, A549, 20 h), the EC50 worked out at 0.0002 µM. Besides, the CC50 in “in vitro” is above 0.05 µM.

In the case of `C[C@H]1C/C=C/COc2c(F)cccc2[C@H](c2ccccc2)N2CN1C(=O)c1c(O)c(=O)ccn12` (single isomer, unassigned) [Compound 100BA, (2*S,9*S,*E)-33-fluoro-15-hydroxy-9-methyl-2-phenyl-12,13,14,16-tetrahydro-11H-4-oxa-1(1,3)-pyrido[2,1-f][1,2,4]triazina-3(1,2)-benzenacyclononaphan-6-ene-14,16-dione], in series [1] (Influenza A virus, A549, 20 h), the EC50 amounted to 5.21 µM. For the same compound, it took 40.2 µM to reach half-maximal cytotoxicity in the series “in vitro” (CC50).

For the origin of these results see US11312727B1, “Macrocyclic flu endonuclease inhibitors” (Janssen BioPharma, Inc., priority 2018, dated 2022).
